Patent publication US8933103B2, “Pyridone derivatives” (Daiichi Sankyo Company, Limited, priority 2012, dated 2015)

Molecular target: T1, AXL (fusion protein of amino acids 464-885 of the intracellular domain of human AXL with glutathione transferase) (Homo sapiens, UniProt P30530)
T1 sequence (P30530 464-885 isoform P30530-2): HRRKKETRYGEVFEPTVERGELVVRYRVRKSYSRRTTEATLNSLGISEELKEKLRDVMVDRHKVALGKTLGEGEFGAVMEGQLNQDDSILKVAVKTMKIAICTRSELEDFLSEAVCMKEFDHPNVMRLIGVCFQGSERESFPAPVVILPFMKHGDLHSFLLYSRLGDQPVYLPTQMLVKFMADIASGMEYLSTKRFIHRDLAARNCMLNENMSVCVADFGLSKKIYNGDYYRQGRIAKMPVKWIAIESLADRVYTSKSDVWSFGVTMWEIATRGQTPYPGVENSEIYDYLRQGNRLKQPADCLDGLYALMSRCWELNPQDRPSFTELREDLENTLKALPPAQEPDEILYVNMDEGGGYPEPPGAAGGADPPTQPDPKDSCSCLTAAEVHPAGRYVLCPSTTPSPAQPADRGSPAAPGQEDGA
Test: Cell-Free Axl Kinase Inhibitory Activity

Row | Compound | IC50
1 | CN(C)C(=O)c1cn(Cc2ccc(F)cc2)cc(C(=O)Nc2ccc(-c3cc(-c4cnn(C)c4)cnc3N)cc2)c1=O [Example 60, N′-{4-[2-Amino-5-(1-methyl-1H-pyrazol-4-yl)pyridin-3-yl]phenyl}-1-(4-fluorobenzyl)-N,N-dimethyl-4-oxo-1,4-dihydropyridine-3,5-dicarboxamide] | 1 to 10 nM
2 | COc1ccc(-n2cc(-c3ccc(F)cc3)c(=O)c(C(=O)Nc3ccc(-c4cc(-c5cnn(C)c5)cnc4N)cc3)n2)cc1 [Example 61, N-{4-[2-Amino-5-(1-methyl-1H-pyrazol-4-yl)pyridin-3-yl]phenyl}-5-(4-fluorophenyl)-1-(4-methoxyphenyl)-4-oxo-1,4-dihydropyridazine-3-carboxamide] | 1 to 10 nM
3 | Nc1ncc(-c2cnn(C3CCNCC3)c2)cc1-c1ccc(NC(=O)c2cn(CCF)cc(-c3ccc(F)cc3)c2=O)cc1 [Example 62, N-{4-[2-Amino-5-(1-piperidin-4-yl-1H-pyrazol-4-yl)pyridin-3-yl]phenyl}-1-(2-fluoroethyl)-5-(4-fluorophenyl)-4-oxo-1,4-dihydropyridine-3-carboxamide] | 0.1 to 1 nM
4 | CCn1cc(C(=O)Nc2ccc(-c3cc(-c4cnn(C[C@H]5COCCO5)c4)cnc3N)cc2)c(=O)c(-c2ccc(F)cc2)c1 [Example 64, N-[4-(2-Amino-5-{1-[(2S)-1,4-dioxan-2-ylmethyl]-1H-pyrazol-4-yl}pyridin-3-yl)phenyl]-1-ethyl-5-(4-fluorophenyl)-4-oxo-1,4-dihydropyridine-3-carboxamide] | 0.1 to 1 nM
5 | Nc1ncc(-c2cnn(C[C@H]3COCCO3)c2)cc1-c1ccc(NC(=O)c2cn(CCF)cc(-c3ccc(F)cc3)c2=O)cc1 [Example 65, N-[4-(2-Amino-5-{1-[(2S)-1,4-dioxan-2-ylmethyl]-1H-pyrazol-4-yl}pyridin-3-yl)phenyl]-1-(2-fluoroethyl)-5-(4-fluorophenyl)-4-oxo-1,4-dihydropyridine-3-carboxamide] | 1 to 10 nM
6 | COCCn1cc(C(=O)Nc2ccc(-c3cc(-c4cnn(C[C@H]5COCCO5)c4)cnc3N)cc2)c(=O)c(-c2ccc(F)cc2)c1 [Example 66, N-[4-(2-Amino-5-{1-[(2S)-1,4-dioxan-2-ylmethyl]-1H-pyrazol-4-yl}pyridin-3-yl)phenyl]-5-(4-fluorophenyl)-1-(2-methoxyethyl)-4-oxo-1,4-dihydropyridine-3-carboxamide] | 1 to 10 nM
7 | CCOCCn1cc(C(=O)Nc2ccc(-c3cc(-c4cnn(C[C@H]5COCCO5)c4)cnc3N)cc2)c(=O)c(-c2ccc(F)cc2)c1 [Example 67, N-[4-(2-Amino-5-{1-[(2S)-1,4-dioxan-2-ylmethyl]-1H-pyrazol-4-yl}pyridin-3-yl)phenyl]-1-(2-ethoxyethyl)-5-(4-fluorophenyl)-4-oxo-1,4-dihydropyridine-3-carboxamide] | 1 to 10 nM
8 | CCN(CC)C(=O)c1cn(Cc2ccc(F)cc2)cc(C(=O)Nc2ccc(-c3cc(-c4cnn(C[C@H]5COCCO5)c4)cnc3N)cc2)c1=O [Example 70, N′-[4-(2-Amino-5-{1-[(2S)-1,4-dioxan-2-ylmethyl]-1H-pyrazol-4-yl}pyridin-3-yl)phenyl]-N,N-diethyl-1-(4-fluorobenzyl)-4-oxo-1,4-dihydropyridine-3,5-dicarboxamide] | 1 to 10 nM
9 | Nc1ncc(-c2cnn(C[C@H]3COCCO3)c2)cc1-c1ccc(NC(=O)c2cn(Cc3ccc(F)cc3)cc(C(=O)N3CCCC3)c2=O)cc1 [Example 71, N-[4-(2-Amino-5-{1-[(2S)-1,4-dioxan-2-ylmethyl]-1H-pyrazol-4-yl}pyridin-3-yl)phenyl]-1-(4-fluorobenzyl)-4-oxo-5-(pyrrolidin-1-ylcarbonyl)-1,4-dihydropyridine-3-carboxamide] | 0.1 to 1 nM
10 | Nc1ncc(-c2cnn(C[C@H]3COCCO3)c2)cc1-c1ccc(NC(=O)c2cn(Cc3ccc(F)cc3)cc(C(=O)N3CCC(F)(F)C3)c2=O)cc1 [Example 73, N-[4-(2-Amino-5-{1-[(2S)-1,4-dioxan-2-ylmethyl]-1H-pyrazol-4-yl}pyridin-3-yl)phenyl]-5-[(3,3-difluoropyrrolidin-1-yl)carbonyl]-1-(4-fluorobenzyl)-4-oxo-1,4-dihydropyridine-3-carboxamide] | 10 to 20 nM
11 | Cc1nnc(-c2cn(Cc3ccc(F)cc3)cc(C(=O)Nc3ccc(-c4cc(-c5cnn(C[C@H]6COCCO6)c5)cnc4N)cc3)c2=O)o1 [Example 74, N-[4-(2-Amino-5-{1-[(2S)-1,4-dioxan-2-ylmethyl]-1H-pyrazol-4-yl}pyridin-3-yl)phenyl]-1-(4-fluorobenzyl)-5-(5-methyl-1,3,4-oxadiazol-2-yl)-4-oxo-1,4-dihydropyridine-3-carboxamide] | 0.1 to 1 nM
12 | Nc1ncc(-c2cnn(C[C@H]3COCCO3)c2)cc1-c1ccc(NC(=O)c2cn(CCF)cc(-c3ccccc3)c2=O)cc1F [Example 75, N-[4-(2-Amino-5-{1-[(2S)-1,4-dioxan-2-ylmethyl]-1H-pyrazol-4-yl}pyridin-3-yl)-3-fluorophenyl]-1-(2-fluoroethyl)-4-oxo-5-phenyl-1,4-dihydropyridine-3-carboxamide] | 1 to 10 nM
13 | Nc1ncc(-c2cnn(C[C@H]3COCCO3)c2)cc1-c1ccc(NC(=O)c2cn(Cc3ccc(F)cc3)cc(C(=O)N3CCCC3)c2=O)cc1F [Example 76, N-[4-(2-Amino-5-{1-[(2S)-1,4-dioxan-2-ylmethyl]-1H-pyrazol-4-yl}pyridin-3-yl)-3-fluorophenyl]-1-(4-fluorobenzyl)-4-oxo-5-(pyrrolidin-1-ylcarbonyl)-1,4-dihydropyridine-3-carboxamide] | 0.1 to 1 nM
14 | Cc1cc(-c2cnc(N)c(-c3ccc(NC(=O)c4cn(CC(F)(F)F)cc(-c5ccc(F)cc5)c4=O)cc3)c2)ccn1 [Example 77, N-[4-(6-Amino-2′-methyl-3,4′-bipyridin-5-yl)phenyl]-5-(4-fluorophenyl)-4-oxo-1-(2,2,2-trifluoroethyl)-1,4-dihydropyridine-3-carboxamide] | 0.1 to 1 nM
15 | Cc1cc(-c2cnc(N)c(-c3ccc(NC(=O)c4cn(CCF)cc(-c5ccc(F)cc5)c4=O)cc3)c2)ccn1 [Example 78, N-[4-(6-Amino-2′-methyl-3,4′-bipyridin-5-yl)phenyl]-1-(2-fluoroethyl)-5-(4-fluorophenyl)-4-oxo-1,4-dihydropyridine-3-carboxamide] | 1 to 10 nM
16 | CC(=O)N1CC=C(c2cnc(N)c(-c3ccc(NC(=O)c4cn(CC(F)(F)F)cc(-c5ccc(F)cc5)c4=O)cc3)c2)CC1 [Example 80, N-[4-(1′-Acetyl-6-amino-1′,2′,3′,6′-tetrahydro-3,4′-bipyridin-5-yl)phenyl]-5-(4-fluorophenyl)-4-oxo-1-(2,2,2-trifluoroethyl)-1,4-dihydropyridine-3-carboxamide] | 0.1 to 1 nM
17 | COc1ccnc(N)c1-c1ccc(NC(=O)c2cn(CC(F)(F)F)cc(-c3ccc(F)cc3)c2=O)cc1 [Example 82, N-[4-(2-Amino-4-methoxypyridin-3-yl)phenyl]-5-(4-fluorophenyl)-4-oxo-1-(2,2,2-trifluoroethyl)-1,4-dihydropyridine-3-carboxamide] | 1 to 10 nM
18 | COc1ccnc(N)c1-c1ccc(NC(=O)c2cn(CCF)cc(-c3ccc(F)cc3)c2=O)cc1 [Example 83, N-[4-(2-Amino-4-methoxypyridin-3-yl)phenyl]-1-(2-fluoroethyl)-5-(4-fluorophenyl)-4-oxo-1,4-dihydropyridine-3-carboxamide] | 10 to 20 nM
19 | COc1ccnc(N)c1-c1ccc(NC(=O)c2cn(CC(F)(F)F)cc(-c3ccc(F)cc3)c2=O)cc1F [Example 85, N-[4-(2-Amino-4-methoxypyridin-3-yl)-3-fluorophenyl]-5-(4-fluorophenyl)-4-oxo-1-(2,2,2-trifluoroethyl)-1,4-dihydropyridine-3-carboxamide] | 0.1 to 1 nM
20 | COc1ncnc(N)c1-c1ccc(NC(=O)c2cn(CC(F)(F)F)cc(-c3ccc(F)cc3)c2=O)cc1 [Example 86, N-[4-(4-Amino-6-methoxypyrimidin-5-yl)phenyl]-5-(4-fluorophenyl)-4-oxo-1-(2,2,2-trifluoroethyl)-1,4-dihydropyridine-3-carboxamide] | 1 to 10 nM
21 | COc1ccc(-c2cnc(N)c(-c3ccc(NC(=O)c4cn(CC(F)(F)F)cc(-c5ccc(F)cc5)c4=O)cn3)c2)cc1OC [Example 87, N-[2′-Amino-5′-(3,4-dimethoxyphenyl)-2,3′-bipyridin-5-yl]-5-(4-fluorophenyl)-4-oxo-1-(2,2,2-trifluoroethyl)-1,4-dihydropyridine-3-carboxamide] | 1 to 10 nM
22 | COc1ccc(-c2cnc(N)c(-c3ccc(NC(=O)c4cn(CC(F)(F)F)cc(-c5ccc(F)cc5)c4=O)cc3)c2)cc1O [Example 88, N-{4-[2-Amino-5-(3-hydroxy-4-methoxyphenyl)pyridin-3-yl]phenyl}-5-(4-fluorophenyl)-4-oxo-1-(2,2,2-trifluoroethyl)-1,4-dihydropyridine-3-carboxamide] | 1 to 10 nM
